In patent publication US20090247520A1, “INHIBITORS OF ANTIGEN RECEPTOR-INDUCED NF-kappa B ACTIVATION” (The Burnham Institute for Medical Research, priority 2008, published 2009):
Like-named read-outs stand apart in the source and are kept apart here.

Legend:
[1] = tested on: PMA/Ionomycin-induced IL-2 production; assay: IL-2 production by PMA/Ionomycin-stimulated Jurkat T cells (ELISA); type: cell-based, human
Experimental: FIG. 4A: Jurkat T cells were treated by anti-cd3/anti-cd28/anti-mouse IgG (6 μg/mL) or PMA/Ion (10 ng/mL) for 24 h, IL-2 production in medium was measured by ELISA kit. FIG. 4B-E: Jurkat T cells were pretreated by IKK inhibitor (B), PKC inhibitor (C), CID-2858522 (D) for 2 h and then treated by anti-cd3/anti-cd28/anti-mouse IgG (6 μg/mL) or PMA/Ion (10 ng/mL) for 24 h, IL-2 production in medium was measured by ELISA kit; E, Jurkat cells were treated by CID-2858522, PKC inhibitor and IKK inhibitor for 24 h, cell viability was measured by ATPlite kit.
In T cells, the antigen receptor stimulates several signal transduction pathways that converge on the IL-2 gene promoter, including NF-κB, NF-AT, and AP-1. For evaluating the effects of CID-2858522 on TCR-initiated, NF-κB-driven events in lymphocytes, we employed Jurkat T-leukemia cells, which have been utilized extensively as model for studying TCR-signaling leading to IL-2 gene expression. For these experiments, Jurkat cells were stimulated with either anti-CD3 (to activate the TCR complex) and anti-CD28 (co-stimulator) or with PMA/Ionomycin, in the presence or absence of CID-2858522, IKK inhibitor, or PKC inhibitor, then IL-2 production was measured 24 hrs later in culture supernatants. […] In contrast, CID-2858522 suppressed IL-2 production by CD3/CD28- and PMA/Ionomycin-stimulated Jurkat cells by approximately half (IC50) at concentrations <10 μM (FIG. 4D).
Lymphokine measurements. Human IL-2 or IL-8 levels in culture medium were measured by Enzyme-Linked Immunosorbent Assays (ELISAs), using BD OptEIA ELISAs (BD Biosciences, San Diego, Calif.), according to the manufacturer's protocol, using 96-well ELISA plates (BD Biosciences) and measuring absorbance within 30 minutes of initiating reactions using a SpectraMax 190 spectrophotometer (Molecular Devices).

[2] = tested on: anti-IgM-induced lymphocyte proliferation; assay: Lymphocyte proliferation assay (3H-Thymidine), anti-IgM-stimulated splenocytes; type: cell-based, mouse; conditions: for IC50: mouse splenocytes, 3H-Thymidine incorporation, read-out: IC50, lymphocyte proliferation, B-cells (anti-IgM)
Experimental: (§1) (A) Isolated mouse primary splenocytes were cultured with anti-CD3/anti-CD28 (0.3 μg/mL each) or anti-IgM (3 μg/mL) for 48 h, then 1 μCi 3H-Thymidine was added for 12 h and incorporation into DNA was measured, expressing data as fold increase above unstimulated cells (mean±SD; n=3). (B-D) Primary splenocytes were pretreated for 2 h with IKK inhibitor, BMS-335541 (B), PKC inhibitor, Bisindolylmaleimide I (C) or CID-2858522 (D), then stimulated with anti-CD3/anti-CD28 (0.3 μg/mL) or anti-IgM (3 μg/mL) for 48 h. 1 μCi 3H-Thymidine was added for 12 h and incorporation into DNA was measured, expressing data as percent inhibition relative to control cells treated with DMSO (mean±SD; n=3). […] Levels of TRAF1 and β-actin were assessed by immunoblotting, quantified by densitometry and TRAF1 results reported relative to control cells, after normalization for β-actin (mean±SD). […] Then nuclear extracts were prepared and p65-DNA-binding activity was measured (mean±SD; n=3).
(§2) Lymphocyte proliferation assay. Splenocytes were isolated from normal Balb/c mice and red blood cells were removed using a mouse erythrocyte lysis kit (R&D Systems, Minneapolis, Minn.). Splenocytes were suspended in RMPI-1640 medium supplemented with 10% FBS, 1% penicillin-streptomycin, and 1 mM L-glutamine. Cells were diluted into 2×10^6 cells/mL and 200 μL were seeded in round bottom 96-well plates and incubated at 37° C. in 5% CO2 and 95% relative humidity. Cells were pretreated with compounds or DMSO diluted in medium for 2 h, then treated with anti-CD3/anti-CD28 or anti-IgM antibodies for 48 h, prior to adding 1 μCi [^3H]-Thymidine for (MP Biomedical, Solon, Ohio) 12 h. Cells were transferred to fiberglass filters (Wallac, Turku, Finland) using a FilterMate Harvester (Perkin Elmer), dried, and [^3H]-incorporation into DNA was quantified by scintillation counting Betaplate Scint (Perkin Elmer) and a MicroBetaTrilux LCS and luminescence counter (Perkin Elmer).

[3] = tested on: anti-CD3/CD28-induced lymphocyte proliferation; assay: Lymphocyte proliferation assay (3H-Thymidine), anti-CD3/CD28-stimulated splenocytes; type: cell-based; conditions: mouse splenocytes; for IC50: 3H-Thymidine incorporation, read-out: IC50, lymphocyte proliferation, T-cells (anti-CD3/CD28)
Experimental: as §1, §2

For `Cc1ccc2nc(NCCN)c3ncc(C)n3c2c1` [BMS-345541, reference compound], the “suppression of PMA/Ionomycin-induced IL-2 production” value ([1]; Jurkat) was “partially suppressed”, the IC50 ([2]; Lymphocyte) was about 2 µM and the “suppression of lymphocyte proliferation” value ([2]; concentrations of 5 μM, stimulus not specified) was “essentially completely suppressed”. The IC50 ([3]; Lymphocyte) was about 4 µM.

In the case of `CN(C)CCCn1cc(C2=C(c3c[nH]c4ccccc34)C(=O)NC2=O)c2ccccc21` [Bisindolylmaleimide I, reference compound], the “suppression of IL-2 production” value ([1]; PMA/Ionomycin Jurkat, PKC inhibitor <0.5 μM) is reported as 80-90%, the IC50 [2] is reported as 0.2 µM and the IC50 [3] is reported as 11.5 µM.

With `Cc1cc2nc(NCCCO)n(CC(=O)c3cc(C(C)(C)C)c(O)c(C(C)(C)C)c3)c2cc1C` [Compound 1, 2-(2-(3-Hydroxypropylamino)-5,6-dimethyl-1H-benzo[d]imidazol-1-yl)-1-(3,5-di-tert-butyl-4-hydroxyphenyl)ethanone] the IC50 ([1]; Homo sapiens, PMA/Ionomycin-stimulated Jurkat cells, 24 h, read-out: IC50, suppression of IL-2 production (by approximately half)) was under 10 µM, the IC50 ([2]; Lymphocyte) was 2 µM and the “effect on anti-CD3/CD28-induced lymphocyte proliferation” value [3] was “minimal effect”.
